The values below come from publication PMC9378659, “Design and synthesis of new N-thioacylated ciprofloxacin derivatives as urease inhibitors with potential antibacterial activity” (Scientific Reports, 2022).

Values after ≈ are worked out from the molar mass of the structure shown. Where two headings read alike, the source gives them in different places.

One assay deals with C. neoformans (H99). The assay can be described thus: Anti-ureolytic assay, colorimetric microdilution in urea broth. The class given is cell-based. Particulars: Cryptococcus neoformans, urea broth pH 6. As for the experimental part: (§1) The colorimetric microdilution technique using urea broth media (Merck, supplemented with glucose; pH 6 for C. neoformans) was used to determine the ureolytic activity of C. neoformans (H99), and clinical isolate of P. vulgaris treated with 3n according to previously reported procedures[18],[37].

In assay [1] the test system is clinical isolate of P. vulgaris. The description is as above. The class given is cell-based. As to conditions: Proteus vulgaris. As for the experimental part: as §1
The target in assay [2] is T1, jack bean urease (JBU; EC 3.5.1.5) (Canavalia ensiformis, UniProt P07374).
T1 construct: purchased Sigma-Aldrich
As to the kind of experiment: biochemical. Particulars: JB urease, mean ± SEM, at least three experiments. Here is the method: All chemicals and jack bean urease (JBU; EC 3.5.1.5) were purchased from Sigma-Aldrich. The urease inhibitory activity of N-thioacylated ciprofloxacin derivatives 3a–n was determined by Berthelot colorimetric method. The ammonia (NH3) produced by the urease enzyme along with indicator solutions including hypochlorite (OCl^−) and phenol make a blue-colored indophenol complex and the absorbance was measured at 625 nm by a Synergy H1 Hybrid multimode microplate reader (BioTek, Winooski, VT, USA).
Assay completed in two steps, at the first step the enzyme cocktail for each compound consisted of 50 µl urease enzyme (3 mg/ml in phosphate buffer, pH 7.4), 100 µl of test compound at different concentrations (0–10 mg/ml, in phosphate buffer, pH 7.4) and 850 µl urea solution (30 mM, in phosphate buffer, pH 7.4). This mixture was incubated at 37 °C for 30 min.
For the second step, each 100 µl of the above mixture was added to 500 µl of indicator solutions A (0.5 g phenol and 25 mg sodium nitroprusside in 500 ml distilled water) and 500 µl of B (2.5 g sodium hydroxide and 4.2 ml sodium hypochlorite (5%) in 500 ml distilled water) and further incubated at 37 °C for 30 min. The absorbance of blue-colored indophenol of each cell is related to the percentage of enzyme inhibition using the following equation: I%=1-T/C×100.
In this equation, I (%) is assigned to the percent of enzyme inhibition. (T) is assigned to the absorbance of our test compounds and C is assigned to the negative control absorbance which is the absorbance of our cocktail without any inhibitor compound. Thiourea and hydroxyurea were used as the positive controls. The IC50 values of test compounds were calculated using GraphPad PRISM 8.0 software (GraphPad, San Diego, CA, USA).

For assay [3], the system named is Pseudomonas aeruginosa ATCC 9027. The assay can be described thus: Antibacterial activity, agar dilution MIC. The class given is cell-based. As to conditions: ATCC9027, read-out: MIC P. aeruginosa. Here is the method:
(§2) Antibacterial activity of the synthesized compounds 3a–n were determined according to the agar dilution methods for Gram-positive bacteria strains (Staphylococcus aureus ATCC 6538 and Staphylococcus epidermidis ATCC 12228) and Gram-negative bacteria strains (Escherichia coli ATCC 8739 and Pseudomonas aeruginosa ATCC 9027).
(§3) Two Gram-positive bacteria strains (Staphylococcus aureus ATCC 6538 and Staphylococcus epidermidis ATCC 12228) and two Gram-negative bacteria strains (Escherichia coli ATCC 8739 and Pseudomonas aeruginosa ATCC 9027) were used for evaluation of the synthesized N-thioacylated ciprofloxacin derivatives 3a–n. All the strains were obtained from Iranian Microbial Collection (Pasteur Institute of Iran, Tehran, Iran). The antibacterial activity of the synthesized compounds was determined according to the agar dilution methods of the National Committee for Clinical Laboratory Standards[43].
(§4) Briefly, a series of twofold dilutions of test compounds 3a–n and ciprofloxacin, the standard antibiotic, were dissolved in 1 ml of DMSO. Each concentration was added to molten test agars that have been allowed to equilibrate in a water bath to 55 °C, to attain the concentrations ranging from 100 to 0.003 µg/ml. To compare the MIC values; the standard antibiotic, ciprofloxacin was also diluted in the same manner.
(§5) To prepare the inoculums suspensions, the bacteria were cultured on Muller-Hinton agar 12–16 h before the test. On the day of the experiment, a single colony of each bacteria was suspended Muller–Hinton broth to reach the turbidity of 0.5 McFarland standard (0.08–0.1 absorbance at 600 nm), which is approximately equivalent to 1.5 × 10^8 CFU/ml. The suspensions were then diluted at 1:10 in sterile saline to obtain a concentration of 1.5 × 10^7 CFU/ml. The plates were dot inoculated with 2 ul of each bacterial suspension and incubated at 37 °C overnight. The MIC was also defined as the lowest concentration of test compounds that completely prevents the growth of bacteria on agar plate following overnight incubation.
On the technique in general: Agar dilution tests growth on a series of plates holding different concentrations.

The test system of assay [4] is Escherichia coli ATCC 8739. The assay can be described thus: Antibacterial activity, agar dilution MIC. Particulars: ATCC8739. The class given is cell-based. As for the experimental part:
as §2, §3, §4, §5

The test system of assay [5] is Staphylococcus aureus ATCC 6538. The assay can be described thus: Antibacterial activity, agar dilution MIC. The format is cell-based. Particulars: ATCC6538, read-out: MIC S. aureus. As for the experimental part: as §2, §3, §4, §5
For assay [6], the system named is Staphylococcus epidermidis ATCC 12228. The assay can be described thus: Antibacterial activity, agar dilution MIC. The class given is cell-based. Particulars: ATCC12228, read-out: MIC S. epidermidis. Here is the method:
as §2, §3, §4, §5

In another assay the test system is jack bean urease. Set-up: method as in PMID 28574649. As to conditions: read-out: IC50 against urease; cited from earlier work.
In a further assay the test system is urease. Set-up: method as in PMID 34179623. As to conditions: read-out: IC50 against urease; cited from earlier work.

T1 sequence (P07374 whole entry, looked up): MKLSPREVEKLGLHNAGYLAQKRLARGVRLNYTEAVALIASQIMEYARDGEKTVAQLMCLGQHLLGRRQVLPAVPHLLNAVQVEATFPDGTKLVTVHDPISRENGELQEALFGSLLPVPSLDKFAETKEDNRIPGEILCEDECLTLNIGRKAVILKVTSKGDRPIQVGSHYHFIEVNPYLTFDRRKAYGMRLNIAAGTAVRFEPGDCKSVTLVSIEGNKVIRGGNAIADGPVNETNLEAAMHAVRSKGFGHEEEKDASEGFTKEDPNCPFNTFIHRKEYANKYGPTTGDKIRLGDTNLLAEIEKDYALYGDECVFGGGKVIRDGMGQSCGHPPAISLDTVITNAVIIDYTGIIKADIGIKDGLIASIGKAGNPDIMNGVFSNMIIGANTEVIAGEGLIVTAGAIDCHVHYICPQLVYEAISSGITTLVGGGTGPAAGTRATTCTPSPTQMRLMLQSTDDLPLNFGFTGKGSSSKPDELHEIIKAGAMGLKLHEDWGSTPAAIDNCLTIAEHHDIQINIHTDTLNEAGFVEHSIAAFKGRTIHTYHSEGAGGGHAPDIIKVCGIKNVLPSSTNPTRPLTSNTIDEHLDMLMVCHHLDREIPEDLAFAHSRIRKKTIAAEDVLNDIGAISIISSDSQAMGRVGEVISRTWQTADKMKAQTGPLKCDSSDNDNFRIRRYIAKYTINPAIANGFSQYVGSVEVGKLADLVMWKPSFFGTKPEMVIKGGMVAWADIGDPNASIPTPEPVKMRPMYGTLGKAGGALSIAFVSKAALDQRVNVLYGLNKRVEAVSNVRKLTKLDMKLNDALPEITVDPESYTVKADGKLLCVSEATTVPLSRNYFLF

What is called IC50 is the midpoint of a concentration-inhibition curve. The MIC is the lowest concentration that inhibits growth of the organism. `O=C(O)c1cn(C2CC2)c2cc(N3CCN(C(=S)c4ccc([N+](=O)[O-])cc4)CC3)c(F)cc2c1=O` [Compound 3n, 1-Cyclopropyl-6-fluoro-7-(4-(4-nitrophenylcarbonothioyl)piperazin-1-yl)-4-oxo-1,4-dihydroquinoline-3-carboxylic acid]: the IC50 in the assay on C. neoformans (H99) stood at 5.59 ± 2.38 µg/mL (≈ 11.3 µM); in assay [1] it was 5.72 ± 1.31 µg/mL (≈ 11.5 µM); in assay [2] (IC50 urease inhibitory activity), 2.05 ± 0.03 µM. The MIC in assay [3] came out at 1.56 µg/mL (≈ 3.15 µM); in assay [4] it was 0.097 µg/mL (≈ 0.195 µM); in assay [5], 0.781 µg/mL (≈ 1.57 µM); in [6], 0.39 µg/mL (≈ 0.785 µM).
Consider `NC(=S)N1N=C(c2cc3ccccc3oc2=O)CC1c1ccccc1` (centres unmarked) [Compound D], for which, in the assay with jack bean urease, the IC50 was 0.000358 ± 1.7e-05 µM.
For the molecule `NC(N)=S` [Thiourea], the values for the IC50 (in the assay with jack bean urease; in assay [2] (read-out: IC50 urease inhibitory activity); in the assay with urease) were 4.72 ± 0.174 µM, 23 ± 0.84 µM and 21.7 ± 0.34 µM, respectively.
